# Legend:
# Assay in all cases: Ba/F3 drug screening, Cell Titer Glo, IC50 Mut/WT
# Type in all cases: cell-based
# [1] = target: T1, EGFR G719A L861Q (Homo sapiens, UniProt P00533, G719A/L861Q); conditions: for ratio of the IC50 value for cells with a PACC EGFR mutation to the IC50 value for cells with wildtype EGFR: Ba/F3 cells, EGFR G719A L861Q (PACC), Mut/WT
# T1 construct: expressed in transfected cells; host or cells: Ba/F3
# [2] = target: T2, EGFR Ex19del L718Q (Homo sapiens, UniProt P00533, DEL746-750/L718Q); conditions: for ratio of the IC50 value for cells with a PACC EGFR mutation to the IC50 value for cells with wildtype EGFR: Ba/F3 cells, EGFR Ex19del L718Q (PACC), Mut/WT
# T2 construct: expressed in transfected cells; host or cells: Ba/F3
# [3] = target: T3, EGFR G719A (Homo sapiens, UniProt P00533, G719A); conditions: for ratio of the IC50 value for cells with a PACC EGFR mutation to the IC50 value for cells with wildtype EGFR: Ba/F3 cells, EGFR G719A (PACC), Mut/WT
# T3 construct: expressed in transfected cells; host or cells: Ba/F3
# Protocol: (§1) Data represent the ratio of the IC50 value for a given TKI for cells with a PACC EGFR mutation to the IC50 value for cells with wildtype EGFR.
# (§2) Ba/F3 cell generation, drug screening, and IC50 approximations. Ba/F3 cells were obtained as a gift from Dr. Gordon Mills (MD Anderson Cancer Center), and maintained in RPMI (Sigma) containing 10% FBS, 1% penicillin/streptomycin, and 10 ng/ml recombinant mIL-3 (R&D Biosystems). To establish stable Ba/F3 cell lines, Ba/F3 cells were transduced with retroviruses containing mutant EGFR plasmids for 12-24 hours.
# (§3) After 48-72 hours of transduction, 2 μg/ml puromycin (Invitrogen) was added to Ba/F3 cell lines in complete RPMI. To select for EGFR positive cell lines, cells were stained with PE-EGFR (Biolegend) and sorted by FACS. After sorting, EGFR positive cells were maintained in RPMI containing 10% FBS, 1% penicillin/streptomycin, and 1 ng/ml EGF to support cell viability. Drug screening was performed as previously described^41,42. Shortly, cells were plated in 384-well plates (Greiner Bio-One) at 2000-3000 cells per well in technical triplicate. Seven different concentrations of TKIs or DMSO vehicle were added to reach a final volume of 40 μL per well. After 72 hours, 11 μL of Cell Titer Glo (Promega) was added to each well. Plates were incubated for a minimum of 10 minutes, and bioluminescence was determined using a FLUOstar OPTIMA plate reader (BMG LABTECH). Raw bioluminescence values were normalized to DMSO control treated cells, and values were plotted in GraphPad Prism. […] Drug screens were performed in technical triplicate on each plate and either duplicate or triplicate biological replicates.
# [4] = target: T4, EGFR Ex19del G796S (Homo sapiens, UniProt P00533, DEL746-750/G796S); conditions: for ratio of the IC50 value for cells with a PACC EGFR mutation to the IC50 value for cells with wildtype EGFR: Ba/F3 cells, EGFR Ex19del G796S (PACC), Mut/WT
# T4 construct: expressed in transfected cells; host or cells: Ba/F3
# Protocol: as §1, §2, §3
# [5] = target: T5, EGFR L858R T790M L718V (Homo sapiens, UniProt P00533, L718V/L858R/T790M); conditions: T790M-like-3R, 72 hours
# T5 construct: expressed in transfected cells; host or cells: Ba/F3
# [6] = target: T6, EGFR T790M (Homo sapiens, UniProt P00533, T790M); conditions: T790M-like-3S, 72 hours
# T6 construct: expressed in transfected cells; host or cells: Ba/F3
# [7] = target: T7, EGFR L858R/L792H (Homo sapiens, UniProt P00533, L792H/L858R); conditions: for ratio of the IC50 value for cells with a PACC EGFR mutation to the IC50 value for cells with wildtype EGFR: Ba/F3 cells, EGFR L858R/L792H (PACC), Mut/WT
# T7 construct: expressed in transfected cells; host or cells: Ba/F3
# Protocol: as §1, §2, §3
# [8] = target: T8, EGFR Ex19del T790M (Homo sapiens, UniProt P00533, DEL746-750/T790M); conditions: T790M-like-3S, 72 hours
# T8 construct: expressed in transfected cells; host or cells: Ba/F3
# Protocol: (§4) Data represent the ratio of the IC50 value for a given TKI for cells with a T790M-like-3S EGFR mutation to the IC50 value for cells with wildtype EGFR.
# as §2, §3
# [9] = target: T9, EGFR L718Q (Homo sapiens, UniProt P00533, L718Q); conditions: for ratio of the IC50 value for cells with a PACC EGFR mutation to the IC50 value for cells with wildtype EGFR: Ba/F3 cells, EGFR L718Q (PACC), Mut/WT
# T9 construct: expressed in transfected cells; host or cells: Ba/F3
# Protocol: as §1, §2, §3
# [10] = target: T10, EGFR E709K (Homo sapiens, UniProt P00533, E709K); conditions: for ratio of the IC50 value for cells with a PACC EGFR mutation to the IC50 value for cells with wildtype EGFR: Ba/F3 cells, EGFR E709K (PACC), Mut/WT
# T10 construct: expressed in transfected cells; host or cells: Ba/F3
# Protocol: as §1, §2, §3
# [11] = target: T11, EGFR L858R T790M L792H (Homo sapiens, UniProt P00533, L792H/L858R/T790M); conditions: T790M-like-3S, 72 hours
# T11 construct: expressed in transfected cells; host or cells: Ba/F3
# Protocol: as §4, §2, §3
# [12] = target: T12, EGFR L833V (Homo sapiens, UniProt P00533, L833V); conditions: Classical-Like, 72 hours
# T12 construct: expressed in transfected cells; host or cells: Ba/F3 cells, retroviral pBabe-Puro vector
# Protocol: (§5) Data represent the ratio of the IC50 value for a given TKI for cells with a classical-like EGFR mutation to the IC50 value for cells with wildtype EGFR.
# as §2
# (§6) After 48-72 hours of transduction, 2 μg/ml puromycin (Invitrogen) was added to Ba/F3 cell lines in complete RPMI. To select for EGFR positive cell lines, cells were stained with PE-EGFR (Biolegend) and sorted by FACS. After sorting, EGFR positive cells were maintained in RPMI containing 10% FBS, 1% penicillin/streptomycin, and 1 ng/ml EGF to support cell viability. […] Shortly, cells were plated in 384-well plates (Greiner Bio-One) at 2000-3000 cells per well in technical triplicate. Seven different concentrations of TKIs or DMSO vehicle were added to reach a final volume of 40 μL per well. After 72 hours, 11 μL of Cell Titer Glo (Promega) was added to each well. Plates were incubated for a minimum of 10 minutes, and bioluminescence was determined using a FLUOstar OPTIMA plate reader (BMG LABTECH). Raw bioluminescence values were normalized to DMSO control treated cells, and values were plotted in GraphPad Prism. […] Drug screens were performed in technical triplicate on each plate and either duplicate or triplicate biological replicates.
# [13] = target: T13, EGFR D761N (Homo sapiens, UniProt P00533, D761N); conditions: Classical-Like, 72 hours
# T13 construct: expressed in transfected cells; host or cells: Ba/F3 cells, retroviral pBabe-Puro vector
# [14] = test system: EGFR I740dupIPVAK; conditions: for ratio of the IC50 value for cells with a PACC EGFR mutation to the IC50 value for cells with wildtype EGFR: Ba/F3 cells, EGFR I740dupIPVAK (PACC), Mut/WT
# Protocol: as §1, §2, §3
# [15] = target: T14, EGFR S768I/V769L (Homo sapiens, UniProt P00533, S768I/V769L); conditions: for ratio of the IC50 value for cells with a PACC EGFR mutation to the IC50 value for cells with wildtype EGFR: Ba/F3 cells, EGFR S768I/V769L (PACC), Mut/WT
# T14 construct: host or cells: Ba/F3
# [16] = target: T15, EGFR N771dupN G724S (Homo sapiens, UniProt P00533, DUP771-771/G724S); conditions: Ex20, 72 hours
# T15 construct: expressed in transfected cells; host or cells: Ba/F3 cells, retroviral pBabe-Puro vector (vector made by GeneScript from EGFR G724S, c.2313_2314insAAC)
# Protocol: Data represent the ratio of the IC50 value for a given TKI for cells with an ex20ins EGFR mutation to the IC50 value for cells with wildtype EGFR.
# as §2
# After 48-72 hours of transduction, 2 μg/ml puromycin (Invitrogen) was added to Ba/F3 cell lines in complete RPMI. To select for EGFR positive cell lines, cells were stained with PE-EGFR (Biolegend) and sorted by FACS. After sorting, EGFR positive cells were maintained in RPMI containing 10% FBS, 1% penicillin/streptomycin, and 1 ng/ml EGF to support cell viability. Drug screening was performed as previously described^41,42. Shortly, cells were plated in 384-well plates (Greiner Bio-One) at 2000-3000 cells per well in technical triplicate. Seven different concentrations of TKIs or DMSO vehicle were added to reach a final volume of 40 μL per well. After 72 hours, 11 μL of Cell Titer Glo (Promega) was added to each well. Plates were incubated for a minimum of 10 minutes, and bioluminescence was determined using a FLUOstar OPTIMA plate reader (BMG LABTECH). Raw bioluminescence values were normalized to DMSO control treated cells, and values were plotted in GraphPad Prism. […] Drug screens were performed in technical triplicate on each plate and either duplicate or triplicate biological replicates. […] Statistical differences between groups were determined by ANOVA as described in the figure legends.
# [17] = target: T16, EGFR Ex19del T790M L718V (Homo sapiens, UniProt P00533, DEL746-750/L718V/T790M); conditions: T790M-like-3S, 72 hours
# T16 construct: expressed in transfected cells; host or cells: Ba/F3
# Protocol: as §4, §2, §3
# [18] = target: T17, EGFR L747P (Homo sapiens, UniProt P00533, L747P); conditions: for ratio of the IC50 value for cells with a PACC EGFR mutation to the IC50 value for cells with wildtype EGFR: Ba/F3 cells, EGFR L747P (PACC), Mut/WT
# T17 construct: expressed in transfected cells; host or cells: Ba/F3
# [19] = target: T18, EGFR R776H (Homo sapiens, UniProt P00533, R776H); conditions: for ratio of the IC50 value for cells with a PACC EGFR mutation to the IC50 value for cells with wildtype EGFR: Ba/F3 cells, EGFR R776H (PACC), Mut/WT
# T18 construct: host or cells: Ba/F3
# [20] = target: T19, EGFR L747S (Homo sapiens, UniProt P00533, L747S); conditions: for ratio of the IC50 value for cells with a PACC EGFR mutation to the IC50 value for cells with wildtype EGFR: Ba/F3 cells, EGFR L747S (PACC), Mut/WT
# T19 construct: expressed in transfected cells; host or cells: Ba/F3
# [21] = target: T20, EGFR A763insLQEA (Homo sapiens, UniProt P00533, INS763LQEA); conditions: Classical-Like, 72 hours
# T20 construct: expressed in transfected cells; host or cells: Ba/F3 cells, retroviral pBabe-Puro vector
# [22] = target: T21, EGFR L861R (Homo sapiens, UniProt P00533, L861R); conditions: Classical-Like, 72 hours
# T21 construct: expressed in transfected cells; host or cells: Ba/F3 cells, retroviral pBabe-Puro vector (vector made by GeneScript from EGFR WT)
# Protocol: as §5, §2, §6
# [23] = target: T22, EGFR L858R/T790M/L718Q (Homo sapiens, UniProt P00533, L718Q/L858R/T790M); conditions: T790M-like-3R, 72 hours
# T22 construct: expressed in transfected cells; host or cells: Ba/F3
# [24] = target: T23, EGFR L858R/L718V (Homo sapiens, UniProt P00533, L718V/L858R); conditions: for ratio of the IC50 value for cells with a PACC EGFR mutation to the IC50 value for cells with wildtype EGFR: Ba/F3 cells, EGFR L858R/L718V (PACC), Mut/WT
# T23 construct: host or cells: Ba/F3
Structure (SMILES),ratio of the IC50 value for cells with a PACC EGFR mutation to the IC50 value for cells with wildtype EGFR [1],ratio of the IC50 value for cells with a PACC EGFR mutation to the IC50 value for cells with wildtype EGFR [2],ratio of the IC50 value for cells with a PACC EGFR mutation to the IC50 value for cells with wildtype EGFR [3],ratio of the IC50 value for cells with a PACC EGFR mutation to the IC50 value for cells with wildtype EGFR [4],ratio of IC50 for cells with mutant EGFR to IC50 for cells with wildtype EGFR (Mut/WT) [5],ratio of IC50 for cells with mutant EGFR to IC50 for cells with wildtype EGFR (Mut/WT) [6],ratio of the IC50 value for cells with a PACC EGFR mutation to the IC50 value for cells with wildtype EGFR [7],ratio of IC50 for cells with mutant EGFR to IC50 for cells with wildtype EGFR (Mut/WT) [8],ratio of the IC50 value for cells with a PACC EGFR mutation to the IC50 value for cells with wildtype EGFR [9],ratio of the IC50 value for cells with a PACC EGFR mutation to the IC50 value for cells with wildtype EGFR [10],ratio of IC50 for cells with mutant EGFR to IC50 for cells with wildtype EGFR (Mut/WT) [11],ratio of IC50 for cells with mutant EGFR to IC50 for cells with wildtype EGFR (Mut/WT) [12],ratio of IC50 for cells with mutant EGFR to IC50 for cells with wildtype EGFR (Mut/WT) [13],ratio of the IC50 value for cells with a PACC EGFR mutation to the IC50 value for cells with wildtype EGFR [14],ratio of the IC50 value for cells with a PACC EGFR mutation to the IC50 value for cells with wildtype EGFR [15],ratio of IC50 for cells with mutant EGFR to IC50 for cells with wildtype EGFR (Mut/WT) [16],ratio of IC50 for cells with mutant EGFR to IC50 for cells with wildtype EGFR (Mut/WT) [17],ratio of the IC50 value for cells with a PACC EGFR mutation to the IC50 value for cells with wildtype EGFR [18],ratio of IC50 for cells with mutant EGFR to IC50 for cells with wildtype EGFR (Mut/WT) [21],ratio of IC50 for cells with mutant EGFR to IC50 for cells with wildtype EGFR (Mut/WT) [22],also measured
C=CC(=O)Nc1cc(Nc2nccc(-c3c[nH]c4ccccc34)n2)c(OC)cc1N(C)CCN(C)C [AZ5104],0.8044,1.487,0.1896,0.8807,19.66,1.125,4.408,0.1837,11.32,0.207,0.5871,0.4446,0.3285,2.234,0.599,1.826,0.7041,3.59,0.03029,0.2335,ratio of the IC50 value for cells with a PACC EGFR mutation to the IC50 value for cells with wildtype EGFR [19]: 3.409; ratio of the IC50 value for cells with a PACC EGFR mutation to the IC50 value for cells with wildtype EGFR [20]: 4.201; ratio of IC50 for cells with mutant EGFR to IC50 for cells with wildtype EGFR (Mut/WT) [23]: 29.86; ratio of the IC50 value for cells with a PACC EGFR mutation to the IC50 value for cells with wildtype EGFR [24]: 1.64
C=CC(=O)Nc1cc(Nc2nccc(-n3cc(CN(C)C)c(-c4ccccc4)n3)n2)c(OC)cc1N1CCOCC1 [Lazertinib],1.406,0.08238,0.362,1.423,0.5404,0.2517,0.1416,,5.442,0.2612,0.0005009,0.006132,0.01957,0.2883,0.666,,0.4667,2.92,0.1304,0.05091,ratio of the IC50 value for cells with a PACC EGFR mutation to the IC50 value for cells with wildtype EGFR [19]: 0.6077; ratio of the IC50 value for cells with a PACC EGFR mutation to the IC50 value for cells with wildtype EGFR [20]: 1.007; ratio of IC50 for cells with mutant EGFR to IC50 for cells with wildtype EGFR (Mut/WT) [23]: 11.87; ratio of the IC50 value for cells with a PACC EGFR mutation to the IC50 value for cells with wildtype EGFR [24]: 2.619
CNC(=O)CN1CCC(Oc2cc3c(Nc4cccc(Cl)c4F)ncnc3cc2OC)CC1 [Sapatinib],,,,,41.48,70.5,,10.73,,,54.78,0.008594,0.001814,,,1.103,,,0.004226,0.002811,"ratio of IC50 for cells with mutant EGFR to IC50 for cells with wildtype EGFR (Mut/WT) ([1]; PACC, G719A L861Q, Ba/F3, 72 hours): 0.04615; ratio of IC50 for cells with mutant EGFR to IC50 for cells with wildtype EGFR (Mut/WT) ([2]; PACC, Ex19del L718Q, Ba/F3, 72 hours): 0.7162; ratio of IC50 for cells with mutant EGFR to IC50 for cells with wildtype EGFR (Mut/WT) ([3]; PACC, G719A, Ba/F3, 72 hours): 0.01264; ratio of IC50 for cells with mutant EGFR to IC50 for cells with wildtype EGFR (Mut/WT) ([4]; PACC, Ex19del G796S, Ba/F3, 72 hours): 3.423; ratio of IC50 for cells with mutant EGFR to IC50 for cells with wildtype EGFR (Mut/WT) ([7]; PACC, L858R/L792H, Ba/F3, 72 hours): 0.01237; ratio of IC50 for cells with mutant EGFR to IC50 for cells with wildtype EGFR (Mut/WT) ([9]; PACC, L718Q, Ba/F3, 72 hours): 2.03; ratio of IC50 for cells with mutant EGFR to IC50 for cells with wildtype EGFR (Mut/WT) ([10]; PACC, E709K, Ba/F3, 72 hours): 0.1216; ratio of IC50 for cells with mutant EGFR to IC50 for cells with wildtype EGFR (Mut/WT) ([14]; PACC, I740dupIPVAK, Ba/F3, 72 hours): 0.008351; ratio of IC50 for cells with mutant EGFR to IC50 for cells with wildtype EGFR (Mut/WT) ([15]; PACC, S768I/V769L, Ba/F3, 72 hours): 0.2596; ratio of IC50 for cells with mutant EGFR to IC50 for cells with wildtype EGFR (Mut/WT) ([18]; PACC, L747P, Ba/F3, 72 hours): 0.03076; ratio of IC50 for cells with mutant EGFR to IC50 for cells with wildtype EGFR (Mut/WT) ([19]; PACC, R776H, Ba/F3, 72 hours): 0.001939; ratio of IC50 for cells with mutant EGFR to IC50 for cells with wildtype EGFR (Mut/WT) ([20]; PACC, L747S, Ba/F3, 72 hours): 0.005189; ratio of IC50 for cells with mutant EGFR to IC50 for cells with wildtype EGFR (Mut/WT) ([24]; PACC, L858R/L718V, Ba/F3, 72 hours): 0.05575"

# Reference: patent publication US20240384350A1, “METHODS OF TREATING CANCER WITH KINASE INHIBITORS” (BOARD OF REGENTS, THE UNIVERSITY OF TEXAS SYSTEM, priority 2021, published 2024)
